Reference: ChEMBL document CHEMBL2150906, “Synthesis of a new [6]-gingerol analogue and its protective effect with respect to the development of metabolic syndrome in mice fed a high-fat diet” (J Med Chem, 2011)
One block for each compound: values may come before it. Activity calls are given as the source filed them. The rule behind the calls is not given here.

Tests used:
3T3-L1 [1] = assay: Increase in adiponectin mRNA levels in TNFalpha-induced mouse 3T3L1 cells pretreated at 10 uM before TNF-alpha challenge relative to control; assay type: functional, cell-based
Mus musculus [2] = assay: Reduction in FAS mRNA levels in HFD-induced obese Jcl:MCH mouse model liver administered as supplement for 86 days measured after 100 days by RT-PCR relative to HFD-fed control; assay type: functional, organism-based
Mus musculus [3] = assay: Hypoglycemic activity in HFD-induced obese Jcl:MCH mouse model assessed as decrease in fasting blood glucose levels administered as supplement for 86 days measured after 92 to 94 days by OGTT relative to HFD-fed control; assay type: functional, organism-based
Mus musculus [4] = assay: Antiobesity activity in HFD-induced obese Jcl:MCH mouse model assessed as decrease in visceral fat administered as supplement for 86 days measured after 90 days by MRI relative to control; assay type: functional
Mus musculus [5] = assay: Antiobesity activity in HFD-induced obese Jcl:MCH mouse model assessed as decrease in subcutaneous fat administered as supplement for 86 days measured after 90 days by MRI (reference value: 20.8 +/- 1.7 %); assay type: functional; design: scale not given: the % may be the effect or the level left
Mus musculus [6] = assay: Reduction in serum leptin levels in HFD-induced obese Jcl:MCH mouse model administered as supplement for 86 days measured after 100 days by ELISA relative to HFD-fed control; assay type: functional, organism-based
Mus musculus [7] = assay: Reduction in ACC mRNA levels in HFD-induced obese Jcl:MCH mouse model liver administered as supplement for 86 days measured after 100 days by RT-PCR relative to HFD-fed control; assay type: functional, organism-based
3T3-L1 [8] = assay: Increase in adiponectin mRNA levels in TNFalpha-induced mouse 3T3L1 cells pretreated at 25 to 50 uM before TNF-alpha challenge relative to control; assay type: functional, cell-based
Mus musculus [9] = assay: Reduction in TNFalpha mRNA levels in HFD-induced obese Jcl:MCH mouse model adipose tissue administered as supplement for 86 days measured after 100 days by RT-PCR relative to HFD-fed control; assay type: functional, organism-based
Mus musculus [10] = assay: Reduction in serum insulin levels in HFD-induced obese Jcl:MCH mouse model administered as supplement for 86 days measured after 100 days by ELISA relative to HFD-fed control; assay type: functional, organism-based
Mus musculus [11] = assay: Reduction in leptin mRNA levels in HFD-induced obese Jcl:MCH mouse model adipose tissue administered as supplement for 86 days measured after 100 days by RT-PCR relative to HFD-fed control; assay type: functional, organism-based
Mus musculus [12] = assay: Antiobesity activity in HFD-induced obese Jcl:MCH mouse model assessed as decrease in body weight administered as supplement for 86 days (reference value: 51.2 +/- 2.7 g); assay type: functional
Mus musculus [13] = assay: Hypoglycemic activity in HFD-induced obese Jcl:MCH mouse model assessed as decrease in post prandial blood glucose levels administered as supplement for 86 days measured after 92 to 94 days by OGTT relative to HFD-fed control; assay type: functional, organism-based
Mus musculus [14] = assay: Reduction in SREBP1c mRNA levels in HFD-induced obese Jcl:MCH mouse model administered as supplement for 86 days measured after 100 days by RT-PCR relative to HFD-fed control; assay type: functional, organism-based
Mus musculus [15] = assay: Antiobesity activity in regular chow-fed Jcl:MCH mouse assessed as decrease in subcutaneous fat administered as supplement for 86 days measured after 90 days by MRI (reference value: 5.4 +/- 1.7%); assay type: functional; design: scale not given: the % may be the effect or the level left
[16] = Stability of the compound in simulated gastric fluid at pH 1.0 assessed as formation of shogaols; assay type: physicochemical; conditions: simulated gi fluid
3T3-L1 [17] = assay: Increase in adiponectin mRNA levels in TNFalpha-induced mouse 3T3L1 cells pretreated at 50 uM before TNF-alpha challenge relative to control; assay type: functional, cell-based
Mus musculus [18] = assay: Antiobesity activity in regular chow-fed Jcl:MCH mouse assessed as decrease in body weight administered as supplement for 86 days (reference value: 45.0 +/- 0.8 g); assay type: functional
[19] = Stability of the compound in 6 N HCl assessed as formation of shogaols; assay type: physicochemical; conditions: buffer

Compound: CN(CCOc1ccc(CC2SC(=O)NC2=O)cc1)c1ccccn1 (configuration not stated)
Activity (3T3-L1 [1]): Active

Compound: CCCCCC(O)CC(=O)CCc1ccc(O)c(OC)c1 (configuration not stated)
Activity (Mus musculus [2]): Active
Activity (Mus musculus [3]): Active
Activity (Mus musculus [4]): 3.5 g
Activity (Mus musculus [5]): 6.7%
Activity (Mus musculus [6]): Active
Activity (Mus musculus [7]): Active
Activity (3T3-L1 [8]): Active
Activity (Mus musculus [9]): Active
Activity (Mus musculus [10]): Active
Activity (Mus musculus [11]): Active
Activity (Mus musculus [12]): 47.1 g
Activity (Mus musculus [13]): Active
Activity (Mus musculus [14]): Active

Stability [16]: Stable
Stability [19]: Stable
Compound: CCCCCC(O)CC(=O)NCc1ccc(O)c(OC)c1 (configuration not stated)
Activity (Mus musculus [2]): Active
Activity (Mus musculus [3]): Active
Activity (Mus musculus [15]): 6.7%
Activity (Mus musculus [4]): 1.84 g
Activity (Mus musculus [5]): 10.9%
Activity (Mus musculus [6]): Active
Activity (Mus musculus [7]): Active
Activity (3T3-L1 [8]): Active
Activity (Mus musculus [9]): Active
Activity (3T3-L1 [17]): Active
Activity (Mus musculus [18]): 41.6 g
Activity (Mus musculus [10]): Active
Activity (Mus musculus [11]): Active
Activity (Mus musculus [12]): 41.6 g
Activity (Mus musculus [13]): Active
Activity (Mus musculus [14]): Active
